Results from ChEMBL document CHEMBL1201862, “PubChem BioAssay data set” (2004).
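48-hour exposure; five concentrations; linearly interpolated endpoints. GI50 marks 50% less growth.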 The source made the active and inactive calls. Rule as the data show it: active = GI50 up to about 1.1 µM and inactive = higher.

Assays:
Assay in all cases: DTP human tumour cell line panel, 48 h
IGROV-1 = test system: IGROV-1
NCI-H522 = test system: NCI-H522
UO-31 = test system: UO-31
SN12C = test system: SN12C
SK-MEL-28 = test system: SK-MEL-28
HCT-116 = test system: HCT-116
SR = test system: SR
HCC 2998 = test system: HCC 2998
SF-539 = test system: SF-539
HT-29 = test system: HT-29
NCI-H460 = test system: NCI-H460
COLO 205 = test system: COLO 205
UACC-257 = test system: UACC-257
OVCAR-8 = test system: OVCAR-8
SK-MEL-2 = test system: SK-MEL-2
SW-620 = test system: SW-620
SNB-75 = test system: SNB-75

| Compound | GI50 (IGROV-1) | GI50 (NCI-H522) | GI50 (UO-31) | GI50 (SN12C) | GI50 (SK-MEL-28) | GI50 (HCT-116) | GI50 (SR) | GI50 (HCC 2998) | GI50 (SF-539) | GI50 (HT-29) | GI50 (NCI-H460) | GI50 (COLO 205) | GI50 (UACC-257) | GI50 (OVCAR-8) | GI50 (SK-MEL-2) | GI50 (SW-620) | GI50 (SNB-75) |
| --- | --- | --- | --- | --- | --- | --- | --- | --- | --- | --- | --- | --- | --- | --- | --- | --- | --- |
| O=C1OC(c2ccccc2)=N/C1=C/NC(CS)C(=O)O (centres undefined) | > 100 µM (inactive) | 55.8 µM (inactive) | > 100 µM (inactive) | > 100 µM (inactive) | > 100 µM (inactive) | > 100 µM (inactive) | > 100 µM (inactive) | > 100 µM (inactive) | > 100 µM (inactive) | > 100 µM (inactive) | > 100 µM (inactive) | > 100 µM (inactive) | > 100 µM (inactive) | > 100 µM (inactive) | > 100 µM (inactive) | > 100 µM (inactive) | 64.3 µM (inactive) |
| CC(C)(C)c1cc(C2c3cc4c(cc3OC(O)(CO)C2C(=O)O)OCO4)cc(C(C)(C)C)c1O.CC(C)(C)c1cc(C2c3cc4c(cc3OC3(O)COC(=O)C23)OCO4)cc(C(C)(C)C)c1O (centres undefined) | 16.4 µM (inactive) | – | 13.6 µM (inactive) | 9.04 µM (inactive) | 11.3 µM (inactive) | 8.47 µM (inactive) | – | – | 12.5 µM (inactive) | 13.5 µM (inactive) | 14.7 µM (inactive) | 20.4 µM (inactive) | 13.2 µM (inactive) | 10 µM (inactive) | – | 14.4 µM (inactive) | 10.1 µM (inactive) |
| Cc1c(N)c(C#N)c2n(C)c3ncccc3n2c1=O | – | > 100 µM (inactive) | > 100 µM (inactive) | > 100 µM (inactive) | > 100 µM (inactive) | > 100 µM (inactive) | > 100 µM (inactive) | > 100 µM (inactive) | > 100 µM (inactive) | > 100 µM (inactive) | > 100 µM (inactive) | > 100 µM (inactive) | > 100 µM (inactive) | > 100 µM (inactive) | > 100 µM (inactive) | > 100 µM (inactive) | > 100 µM (inactive) |
| Cc1ccccc1NC(=O)c1ccc([N+](=O)[O-])cc1 | > 100 µM (inactive) | 28 µM (inactive) | > 100 µM (inactive) | > 100 µM (inactive) | > 100 µM (inactive) | > 100 µM (inactive) | – | > 100 µM (inactive) | > 100 µM (inactive) | 51.1 µM (inactive) | > 100 µM (inactive) | > 100 µM (inactive) | > 100 µM (inactive) | > 100 µM (inactive) | – | > 100 µM (inactive) | > 100 µM (inactive) |
| CCCCCNC(=O)CCCCCCCCCCCNC(=O)CCCCCCCCCCN1C=CC(=CC=C2C=CC(=O)C=C2)C=C1 | 28.4 µM (inactive) | 32.4 µM (inactive) | > 100 µM (inactive) | 39.4 µM (inactive) | > 100 µM (inactive) | > 100 µM (inactive) | 6.64 µM (inactive) | 32.7 µM (inactive) | 30.3 µM (inactive) | 54.6 µM (inactive) | > 100 µM (inactive) | 15.3 µM (inactive) | 16.6 µM (inactive) | 55.7 µM (inactive) | – | 54.1 µM (inactive) | 19.4 µM (inactive) |
| C/C(=N\NC(N)=S)c1cc(C)c(C)cc1C | 31 µM (inactive) | – | 56.8 µM (inactive) | > 100 µM (inactive) | 86.7 µM (inactive) | > 100 µM (inactive) | 37 µM (inactive) | 52.5 µM (inactive) | 35.5 µM (inactive) | 20.2 µM (inactive) | 43.9 µM (inactive) | 27.7 µM (inactive) | 90.8 µM (inactive) | > 100 µM (inactive) | 34.6 µM (inactive) | 44 µM (inactive) | 30.6 µM (inactive) |
| O=C(NC1C(=O)NNC1c1ccccc1Cl)c1ccccc1 (centres undefined) | > 100 µM (inactive) | 91.4 µM (inactive) | > 100 µM (inactive) | > 100 µM (inactive) | > 100 µM (inactive) | > 100 µM (inactive) | 42.2 µM (inactive) | > 100 µM (inactive) | > 100 µM (inactive) | > 100 µM (inactive) | > 100 µM (inactive) | > 100 µM (inactive) | > 100 µM (inactive) | > 100 µM (inactive) | > 100 µM (inactive) | > 100 µM (inactive) | > 100 µM (inactive) |
| COC(=O)C1=CC2C(=O)OC1CC2C#N (centres undefined) | > 100 µM (inactive) | > 100 µM (inactive) | > 100 µM (inactive) | > 100 µM (inactive) | > 100 µM (inactive) | > 100 µM (inactive) | > 100 µM (inactive) | > 100 µM (inactive) | > 100 µM (inactive) | > 100 µM (inactive) | > 100 µM (inactive) | > 100 µM (inactive) | > 100 µM (inactive) | > 100 µM (inactive) | – | > 100 µM (inactive) | > 100 µM (inactive) |
| CCN(CC)CC1CCCCN1CC(=O)N1CC(C)C(=O)Nc2ccccc21 (centres undefined) | > 100 µM (inactive) | – | > 100 µM (inactive) | > 100 µM (inactive) | > 100 µM (inactive) | > 100 µM (inactive) | > 100 µM (inactive) | > 100 µM (inactive) | – | > 100 µM (inactive) | > 100 µM (inactive) | > 100 µM (inactive) | > 100 µM (inactive) | – | – | > 100 µM (inactive) | – |
| COC(=O)c1c(C)cc2c(c1O)C1(O)C(=O)c3cc4c(c(O)c3C(=O)C1(OC)C(O)C2)C(=O)C=C(NC1OC(C)C(OC)C(O)C1OC)C4=O (centres undefined) | 0.0134 µM (active) | 0.0552 µM (active) | 0.14 µM (active) | 0.139 µM (active) | – | 0.0378 µM (active) | 0.0405 µM (active) | 0.138 µM (active) | 0.0605 µM (active) | 0.0493 µM (active) | 0.0986 µM (active) | 0.0532 µM (active) | 0.017 µM (active) | 0.0695 µM (active) | 0.0284 µM (active) | 0.0416 µM (active) | 0.141 µM (active) |
| COc1cc(-c2ccccc2)c(OC)cc1CCl | > 100 µM (inactive) | > 100 µM (inactive) | > 100 µM (inactive) | > 100 µM (inactive) | – | > 100 µM (inactive) | – | > 100 µM (inactive) | > 100 µM (inactive) | > 100 µM (inactive) | > 100 µM (inactive) | > 100 µM (inactive) | > 100 µM (inactive) | > 100 µM (inactive) | > 100 µM (inactive) | > 100 µM (inactive) | > 100 µM (inactive) |
| COc1ccc(/C=C/C(=O)c2cc(C(=O)O)c(OC)cc2OC)cc1OC | > 100 µM (inactive) | > 100 µM (inactive) | – | > 100 µM (inactive) | > 100 µM (inactive) | > 100 µM (inactive) | > 100 µM (inactive) | – | > 100 µM (inactive) | > 100 µM (inactive) | > 100 µM (inactive) | > 100 µM (inactive) | > 100 µM (inactive) | > 100 µM (inactive) | – | > 100 µM (inactive) | > 100 µM (inactive) |
| OC(CC1SCCCS1)c1ccccc1 (centres undefined) | > 100 µM (inactive) | 61.7 µM (inactive) | > 100 µM (inactive) | > 100 µM (inactive) | – | > 100 µM (inactive) | – | > 100 µM (inactive) | > 100 µM (inactive) | > 100 µM (inactive) | > 100 µM (inactive) | > 100 µM (inactive) | > 100 µM (inactive) | > 100 µM (inactive) | > 100 µM (inactive) | > 100 µM (inactive) | > 100 µM (inactive) |
| O=c1c2ccccc2c(=O)c2c1c1[nH]c3ccccc3c1c1c(=O)c3ccccc3c(=O)c21 | > 100 µM (inactive) | > 100 µM (inactive) | > 100 µM (inactive) | > 100 µM (inactive) | > 100 µM (inactive) | > 100 µM (inactive) | – | > 100 µM (inactive) | > 100 µM (inactive) | > 100 µM (inactive) | > 100 µM (inactive) | > 100 µM (inactive) | > 100 µM (inactive) | > 100 µM (inactive) | > 100 µM (inactive) | > 100 µM (inactive) | > 100 µM (inactive) |
| c1cncc(C2c3[nH]c4ccccc4c3CCN2CCCN2CCCCC2)c1 (centres undefined) | > 100 µM (inactive) | > 100 µM (inactive) | 81.1 µM (inactive) | > 100 µM (inactive) | 20.3 µM (inactive) | > 100 µM (inactive) | > 100 µM (inactive) | > 100 µM (inactive) | > 100 µM (inactive) | > 100 µM (inactive) | > 100 µM (inactive) | 84.3 µM (inactive) | 60.7 µM (inactive) | > 100 µM (inactive) | > 100 µM (inactive) | > 100 µM (inactive) | > 100 µM (inactive) |
| O=[PH](O)c1cc2ccccc2c2ccccc12 | > 100 µM (inactive) | > 100 µM (inactive) | – | > 100 µM (inactive) | > 100 µM (inactive) | > 100 µM (inactive) | – | > 100 µM (inactive) | > 100 µM (inactive) | > 100 µM (inactive) | > 100 µM (inactive) | > 100 µM (inactive) | – | > 100 µM (inactive) | – | > 100 µM (inactive) | > 100 µM (inactive) |
| C=C1C2CC(OC(C)=O)C3(C)C(c4ccoc4)OC(=O)[C@@H](O)[C@]13OC1C[C@H](OC(C)=O)C(C)(C)[C@H](CC(=O)OC)[C@]12C (some centres undefined) | > 100 µM (inactive) | – | > 100 µM (inactive) | > 100 µM (inactive) | > 100 µM (inactive) | > 100 µM (inactive) | – | > 100 µM (inactive) | > 100 µM (inactive) | > 100 µM (inactive) | > 100 µM (inactive) | > 100 µM (inactive) | – | > 100 µM (inactive) | > 100 µM (inactive) | > 100 µM (inactive) | 33.6 µM (inactive) |
| N#C/C(=C\c1ccc(O)c(O)c1)C(N)=O | 76.4 µM (inactive) | 9.2 µM (inactive) | 31.8 µM (inactive) | 39.2 µM (inactive) | 41 µM (inactive) | 23 µM (inactive) | – | 53.1 µM (inactive) | 30.5 µM (inactive) | 69.8 µM (inactive) | 38 µM (inactive) | 58.1 µM (inactive) | 36 µM (inactive) | 43.4 µM (inactive) | > 100 µM (inactive) | 43.9 µM (inactive) | 17.7 µM (inactive) |
